Assay results reported in ChEMBL document CHEMBL1201862, “PubChem BioAssay data set” (2004).
The source made the active and inactive calls.

How the values were obtained:
[1] = molecular target: T1, Estrogen receptor beta (Homo sapiens, UniProt Q92731);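 also: recombinant ER-beta bound to coactivator SRC1 peptide in presence of estradiol agonist; inhibitors block coactivator peptide binding and lower the FRET signal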
[2] = molecular target: T1, Estrogen receptor beta; test: ERβ–SRC-3 coactivator interaction inhibitors, confirmation, orthogonal assay, biochemical, ELISA, streptavidin-HRP readout (AID 1060)
[3] = molecular target: T2, Cytochrome P450 2C19 (Homo sapiens, UniProt P33261); test: qHTS Assay for Inhibitors and Substrates of Cytochrome P450 2C19. [Related pubchem assays: 410 ]; assay type: ADME; conditions: read-out: Potency
T2 sequence (P33261 whole entry): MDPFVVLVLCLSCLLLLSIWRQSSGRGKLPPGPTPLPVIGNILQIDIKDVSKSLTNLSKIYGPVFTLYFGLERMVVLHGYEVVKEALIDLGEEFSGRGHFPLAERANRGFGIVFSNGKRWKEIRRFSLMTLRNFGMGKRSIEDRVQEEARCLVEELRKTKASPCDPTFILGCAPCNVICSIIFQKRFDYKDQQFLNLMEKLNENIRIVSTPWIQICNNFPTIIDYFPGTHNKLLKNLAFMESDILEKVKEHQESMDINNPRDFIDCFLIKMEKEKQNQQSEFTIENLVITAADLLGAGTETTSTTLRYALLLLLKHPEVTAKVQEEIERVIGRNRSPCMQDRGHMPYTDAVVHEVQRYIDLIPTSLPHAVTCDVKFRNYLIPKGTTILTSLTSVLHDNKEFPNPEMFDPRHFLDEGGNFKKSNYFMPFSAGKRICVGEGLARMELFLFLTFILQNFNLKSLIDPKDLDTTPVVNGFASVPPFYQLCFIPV

[4] = molecular target: Ubiquitin carboxyl-terminal hydrolase BAP1 (Homo sapiens, UniProt Q92560); test: BAP1 deubiquitinase inhibitors, dose response, biochemical (AID 714); assay type: functional
Chain of Ubiquitin carboxyl-terminal hydrolase BAP1 (Q92560 whole entry): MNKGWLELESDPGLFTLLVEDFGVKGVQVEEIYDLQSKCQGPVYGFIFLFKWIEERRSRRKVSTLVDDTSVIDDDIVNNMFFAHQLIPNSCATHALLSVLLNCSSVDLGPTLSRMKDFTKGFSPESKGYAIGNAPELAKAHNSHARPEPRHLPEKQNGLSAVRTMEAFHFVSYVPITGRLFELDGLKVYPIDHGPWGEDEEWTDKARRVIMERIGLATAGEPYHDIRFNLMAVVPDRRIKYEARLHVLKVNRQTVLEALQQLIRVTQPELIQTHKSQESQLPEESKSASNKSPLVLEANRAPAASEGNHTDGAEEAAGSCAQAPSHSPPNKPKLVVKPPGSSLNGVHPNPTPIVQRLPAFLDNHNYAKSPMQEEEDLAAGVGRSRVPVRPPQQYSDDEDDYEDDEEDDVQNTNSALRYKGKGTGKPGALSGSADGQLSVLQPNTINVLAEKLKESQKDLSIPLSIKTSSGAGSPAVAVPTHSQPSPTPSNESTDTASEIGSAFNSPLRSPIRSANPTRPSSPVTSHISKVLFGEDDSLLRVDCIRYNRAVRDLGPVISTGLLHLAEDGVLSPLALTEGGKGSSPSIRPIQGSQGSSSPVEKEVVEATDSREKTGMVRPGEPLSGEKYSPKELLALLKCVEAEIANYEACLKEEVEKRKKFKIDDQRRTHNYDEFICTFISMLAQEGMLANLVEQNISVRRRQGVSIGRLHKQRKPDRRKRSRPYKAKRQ

[5] = molecular target: Bifunctional protein GlmU (Mycobacterium tuberculosis, UniProt P9WMN3); test: Inhibitors of Mycobacterial Glucosamine-1-phosphate acetyl transferase (GlmU). Secondary screen.; set-up: species or system Mycobacterium tuberculosis H37Rv
Chain of Bifunctional protein GlmU (P9WMN3 whole entry): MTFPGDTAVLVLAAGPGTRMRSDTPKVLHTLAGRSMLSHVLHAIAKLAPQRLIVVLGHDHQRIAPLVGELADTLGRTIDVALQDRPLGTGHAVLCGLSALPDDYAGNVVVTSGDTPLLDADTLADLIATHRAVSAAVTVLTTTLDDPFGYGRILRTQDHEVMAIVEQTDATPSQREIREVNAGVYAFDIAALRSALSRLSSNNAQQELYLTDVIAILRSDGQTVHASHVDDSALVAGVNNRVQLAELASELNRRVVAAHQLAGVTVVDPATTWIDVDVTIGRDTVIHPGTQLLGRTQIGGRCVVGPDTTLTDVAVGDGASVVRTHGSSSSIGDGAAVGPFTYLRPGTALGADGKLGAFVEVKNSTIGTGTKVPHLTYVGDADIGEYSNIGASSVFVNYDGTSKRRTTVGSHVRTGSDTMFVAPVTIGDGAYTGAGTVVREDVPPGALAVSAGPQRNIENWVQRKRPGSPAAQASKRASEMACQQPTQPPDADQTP

[6] = molecular target: T3, Mannose-6-phosphate isomerase (Homo sapiens, UniProt P34949); test: human PMI inhibitors, high substrate, primary screen, biochemical, fluorescence intensity, high mannose 6-phosphate (AID 1220)
T3 sequence (P34949 whole entry): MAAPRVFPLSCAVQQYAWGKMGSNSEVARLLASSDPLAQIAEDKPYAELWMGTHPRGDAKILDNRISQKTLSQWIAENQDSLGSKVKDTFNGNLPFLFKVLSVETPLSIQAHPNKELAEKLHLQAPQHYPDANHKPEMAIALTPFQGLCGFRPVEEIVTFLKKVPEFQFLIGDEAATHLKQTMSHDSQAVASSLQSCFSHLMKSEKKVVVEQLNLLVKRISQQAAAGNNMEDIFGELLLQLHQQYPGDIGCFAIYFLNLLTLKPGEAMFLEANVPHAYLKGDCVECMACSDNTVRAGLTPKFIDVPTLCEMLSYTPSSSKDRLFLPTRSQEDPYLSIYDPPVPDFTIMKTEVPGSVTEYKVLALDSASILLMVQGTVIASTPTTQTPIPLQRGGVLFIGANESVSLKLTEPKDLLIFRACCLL

[7] = Luminescent dose response cell-based high throughput screening assay for inhibitors of the Janus kinase 2 mutant JAK2V617F. [Related pubchem assays: 1446 (Primary screen.), 1521 (Confirmation assay.), 1486 (Counter screen.)]; assay type: functional
[8] = molecular target: T4, Glutathione-S-transferase (Schistosoma japonicum, UniProt Q26513); test: biotin-GST/anti-GST TR-FRET signal inhibitors, dose response, artefact control for Vif-APOBEC3G degradation inhibitor project, biochemical (AID 1117362); assay type: functional
T4 sequence (Q26513 whole entry): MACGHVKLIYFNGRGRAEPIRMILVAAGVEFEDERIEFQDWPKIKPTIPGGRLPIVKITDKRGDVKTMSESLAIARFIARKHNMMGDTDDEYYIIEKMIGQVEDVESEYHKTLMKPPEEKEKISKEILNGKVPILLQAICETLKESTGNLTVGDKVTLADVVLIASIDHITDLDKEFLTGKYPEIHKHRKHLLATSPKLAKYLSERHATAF

[9] = molecular target: T5, Replicative DNA helicase DnaB (Mycobacterium tuberculosis, UniProt P9WMR3); test: DnaB intein splicing inhibitors, dose response, biochemical, cell-free fluorescence (AID 449749); assay type: functional
T5 sequence (P9WMR3 whole entry): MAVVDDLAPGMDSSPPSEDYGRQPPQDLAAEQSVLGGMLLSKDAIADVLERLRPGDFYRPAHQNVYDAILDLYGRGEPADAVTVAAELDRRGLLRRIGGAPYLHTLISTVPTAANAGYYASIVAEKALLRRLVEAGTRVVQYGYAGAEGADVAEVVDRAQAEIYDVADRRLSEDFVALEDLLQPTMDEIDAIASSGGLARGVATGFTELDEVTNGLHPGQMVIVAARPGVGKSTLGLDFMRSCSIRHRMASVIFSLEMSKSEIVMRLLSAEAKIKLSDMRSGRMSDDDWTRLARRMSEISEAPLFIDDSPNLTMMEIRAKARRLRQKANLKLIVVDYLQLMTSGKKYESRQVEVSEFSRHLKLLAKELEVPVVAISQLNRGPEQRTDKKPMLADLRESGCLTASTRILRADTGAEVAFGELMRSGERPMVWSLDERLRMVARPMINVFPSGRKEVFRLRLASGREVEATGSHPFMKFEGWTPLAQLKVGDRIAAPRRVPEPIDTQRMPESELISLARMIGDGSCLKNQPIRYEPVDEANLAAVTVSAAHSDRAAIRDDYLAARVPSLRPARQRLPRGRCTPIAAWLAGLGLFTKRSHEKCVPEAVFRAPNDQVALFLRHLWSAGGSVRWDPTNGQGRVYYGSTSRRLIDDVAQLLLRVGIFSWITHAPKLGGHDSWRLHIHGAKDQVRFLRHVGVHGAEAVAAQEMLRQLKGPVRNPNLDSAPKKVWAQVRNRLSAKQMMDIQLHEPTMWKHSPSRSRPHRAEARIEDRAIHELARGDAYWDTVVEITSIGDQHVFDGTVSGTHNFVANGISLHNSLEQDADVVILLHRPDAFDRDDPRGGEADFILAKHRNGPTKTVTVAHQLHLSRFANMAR

[10] = molecular target: T6, Protein RecA (Mycobacterium tuberculosis, UniProt P9WHJ3); test: Fluorescence Cell-Free Homogeneous Dose Retest to Identify Inhibitors of RecA-Intein Splicing Activity. [Related pubchem assays (depositor defined):AID2097, AID2223, AID489010, AID492950]; assay type: functional
T6 sequence (P9WHJ3 whole entry): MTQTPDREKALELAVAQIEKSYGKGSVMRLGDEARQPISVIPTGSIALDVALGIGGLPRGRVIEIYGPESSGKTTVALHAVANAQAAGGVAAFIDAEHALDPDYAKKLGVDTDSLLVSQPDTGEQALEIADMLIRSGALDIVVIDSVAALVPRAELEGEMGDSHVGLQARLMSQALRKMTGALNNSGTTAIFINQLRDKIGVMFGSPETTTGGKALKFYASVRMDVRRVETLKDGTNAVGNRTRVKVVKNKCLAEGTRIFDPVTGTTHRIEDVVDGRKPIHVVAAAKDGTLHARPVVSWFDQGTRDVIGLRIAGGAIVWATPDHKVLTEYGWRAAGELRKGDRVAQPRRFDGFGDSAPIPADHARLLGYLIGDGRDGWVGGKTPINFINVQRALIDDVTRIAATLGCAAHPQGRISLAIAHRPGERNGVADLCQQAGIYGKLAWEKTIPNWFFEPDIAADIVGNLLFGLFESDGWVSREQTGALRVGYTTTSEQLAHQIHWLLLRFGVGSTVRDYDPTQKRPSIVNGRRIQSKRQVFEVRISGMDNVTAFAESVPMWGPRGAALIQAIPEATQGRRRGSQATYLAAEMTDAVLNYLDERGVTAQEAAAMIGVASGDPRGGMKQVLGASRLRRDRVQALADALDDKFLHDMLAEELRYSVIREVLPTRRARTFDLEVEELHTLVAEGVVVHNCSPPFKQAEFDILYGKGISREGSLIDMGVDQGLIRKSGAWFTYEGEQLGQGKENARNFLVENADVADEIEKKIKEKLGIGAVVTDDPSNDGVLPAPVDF

[11] = Vero cell cytotoxicity, dose response, cytotoxicity control for Vif-APOBEC3G degradation inhibitor project, Vero cells (AID 1117358); assay type: functional; conditions: Human immunodeficiency virus 1, Vero
[12] = CEM21 lymphoblast cell cytotoxicity, dose response, cytotoxicity control for viral fusion inhibitor project, CellTiter-Glo luminescence, cherry-picked (AID 652042); assay type: functional, cell-based;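 also: potency for signal decrease meaning cytotoxicity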
[13] = off-target signal loss in HeLa-CEM21 co-culture – HeLa F-luc CTL cells, cherry-picked, counter-screen for HIV-1 Env fusion inhibitor project, dose response (AID 652040); assay type: functional, cell-based;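 also: potency for signal decrease marking cytotoxic or nonspecific inhibition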
[14] = inhibitors of HIV Env-driven cell fusion, dose response, cherry-pick (AID 652057); assay type: functional, cell-based
[15] = inhibitors of clade B AD8 Env fusion, dose response, cell-based, cherry-pick (AID 652062); assay type: functional;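 also: luciferase signal from cell-cell fusion driven by HIV-1 clade B AD8 Env; potency is for inhibitors of fusion seen as a drop in luminescence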
[16] = ZM109 Env clade C HIV-1 fusion inhibitors, dose response, HeLa effector, CEM target cells, luciferase, cherry-pick (AID 652058); assay type: functional, cell-based
[17] = molecular target: T7, Heat shock factor protein 1 (Mus musculus, UniProt P38532); test: HSF1 potentiators in luciferase reporter cells, confirmation, cell-based, NIH3T3, luminescence, dose retest (AID 435004); assay type: functional;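 also: stress induced by proteasome inhibitor MG132 added 30 min after compound; luciferase reporter driven by HSF1 response element in NIH3T3 cells; actives raise luminescence as potentiators of the MG132 stress response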
T7 sequence (P38532 whole entry): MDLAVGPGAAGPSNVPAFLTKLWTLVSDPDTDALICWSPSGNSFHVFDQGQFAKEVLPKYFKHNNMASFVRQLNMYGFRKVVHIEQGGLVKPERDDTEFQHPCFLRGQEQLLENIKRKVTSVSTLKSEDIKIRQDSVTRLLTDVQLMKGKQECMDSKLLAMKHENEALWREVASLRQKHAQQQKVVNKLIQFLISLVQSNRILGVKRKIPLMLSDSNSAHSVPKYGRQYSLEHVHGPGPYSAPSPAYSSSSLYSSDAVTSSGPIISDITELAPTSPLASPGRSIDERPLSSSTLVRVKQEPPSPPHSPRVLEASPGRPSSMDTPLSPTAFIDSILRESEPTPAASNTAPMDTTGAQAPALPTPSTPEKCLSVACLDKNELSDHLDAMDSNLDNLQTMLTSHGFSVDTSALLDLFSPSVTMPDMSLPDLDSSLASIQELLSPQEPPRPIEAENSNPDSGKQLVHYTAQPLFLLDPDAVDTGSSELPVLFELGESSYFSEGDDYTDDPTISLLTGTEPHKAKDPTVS

[18] = Luminescence Cell-Based Dose Response to Identify Activators of 5'UTR Stem-Loop Driven Prion Protein mRNA Translation in H4-C Neuroglioblastoma Cells. [Related pubchem assays: 1829 (Project Summary), 1814 (Primary HTS)]; assay type: functional
[19] = tested on: HeLa; test: HeLa cell cytotoxicity, dose response, cytotoxicity control for MITF activator project, CellTiter-Glo luminescence, cherry-pick samples (AID 540259); assay type: functional, cell-based; conditions: Homo sapiens
[20] = Luminescence Cell-Based Dose Confirmation to Identify Activators of 5'UTR Stem-Loop Driven Alpha-Synuclein mRNA Translation in H4 Neuroglioblastoma Cells. [Related pubchem assays: 1829 (Project Summary), 1814 (Primary HTS)]; assay type: functional
[21] = tested on: H4; test: Luminescence Cell-Based Dose Response HTS to Identify Activators of 5'UTR Stem-Loop Driven Prion Protein mRNA Translation in H4 Neuroglioblastoma Cells. [Related pubchem assays: 1829 (Project Summary), 1814 (Primary HTS)]; assay type: functional; conditions: Homo sapiens
[22] = Luminescence Cell-Based Dose Response HTS to Identify Activators of Luciferase Translation or Activity in H4 […] Cells. [Related pubchem assays: 1829 (Project Summary), 1814 (Primary HTS)]; assay type: functional
[23] = tested on: A-375; test: MITF: Counter assay: A375 proliferation Measured in Cell-Based System Using Plate Reader - 2084-03_Inhibitor_Dose_DryPowder_Activity. [Related pubchem assays (depositor defined):AID488944]; assay type: functional; conditions: Homo sapiens
[24] = Luminescence Cell-Based Dose Response to Identify Activators of Luciferase Translation or Activity in H4-C Neuroglioblastoma Cells. [Related pubchem assays: 1829 (Project Summary), 1814 (Primary HTS)]; assay type: functional
[25] = tested on: A-375; test: A375 melanoma cell viability reduction, dose response, counter-screen for MITF modulator project, cherry-pick samples, set 2 (AID 540335); assay type: functional, cell-based; conditions: Homo sapiens
[26] = molecular target: T7, Heat shock factor protein 1; test: inhibition of MG132-induced HSE-luciferase signal, confirmation, cell-based, NIH3T3, luminescence, dose retest (AID 2382); assay type: functional;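 also: NIH3T3 fibroblasts with HSF1-driven luciferase reporter stressed by proteasome inhibitor MG132; luminescence from HSF1-driven luciferase expression after 8 hours of MG132 stress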
[27] = molecular target: T2, Cytochrome P450 2C19; test: Cytochrome panel assay with activity outcomes. Panel member name: p450-cyp2c19 Compounds with AC50 equal or less than 10 uM are considered active; assay type: functional

T1 sequence (Q92731 whole entry): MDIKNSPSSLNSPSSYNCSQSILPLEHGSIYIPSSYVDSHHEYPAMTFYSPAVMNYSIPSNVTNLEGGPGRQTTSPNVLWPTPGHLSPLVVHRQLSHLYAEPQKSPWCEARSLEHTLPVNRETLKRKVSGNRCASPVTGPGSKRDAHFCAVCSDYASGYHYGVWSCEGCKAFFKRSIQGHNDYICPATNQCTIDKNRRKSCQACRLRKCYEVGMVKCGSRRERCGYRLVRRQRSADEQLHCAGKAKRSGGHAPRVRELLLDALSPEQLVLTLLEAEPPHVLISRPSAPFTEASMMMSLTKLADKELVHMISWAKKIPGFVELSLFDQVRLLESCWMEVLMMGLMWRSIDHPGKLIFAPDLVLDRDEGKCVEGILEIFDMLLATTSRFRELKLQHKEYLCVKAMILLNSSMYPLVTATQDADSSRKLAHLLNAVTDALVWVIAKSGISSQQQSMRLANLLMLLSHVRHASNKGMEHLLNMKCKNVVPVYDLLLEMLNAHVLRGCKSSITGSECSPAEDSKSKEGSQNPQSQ

N#Cc1ccsc1NC(=O)CSc1ncnc2ccccc12
IC50 [1]: > 50 µM (not active) | IC50 [2]: < 0.023 µM (not active)

CCCCCCC(=O)Cc1cc(OC)c(OC)cc1C=C(C(=O)OCC)C(=O)OCC
AC50 [3]: 3.16 µM (inconclusive)

O=C(NCc1ccccc1)c1cnc2ccc(S(=O)(=O)Nc3ccc4c(c3)OCCO4)cc2c1O
IC50 [4]: > 50 µM (not active)

O=C1CCCC(=O)C1=NNc1cccc(C(=O)O)c1
IC50 [5]: 120 µM (active)

O=[N+]([O-])c1c(NCCO)cc(N2CCCCC2)c2nonc12
IC50 [6]: > 50 µM (not active)

CC(C)(C)/C(O)=C/c1nc2cc(Cl)ccc2oc1=O
IC50 [7]: 1.7 µM (active)

CC1=CC(C)(C)Nc2cc(C)c(C)cc21
IC50 [4]: > 50 µM (not active)

COc1cc([C@@H]2Oc3cc([C@H]4Oc5cc(O)cc(O)c5C(=O)[C@H]4O)ccc3O[C@H]2CO)ccc1O
AC50 [3]: 15.8 µM (inconclusive)

CCN(CC)c1ccc2c(c1)CCCN2
IC50 [8]: 48.6 µM (active) | AC50 [9]: > 120 µM (inactive) | EC50 [10]: > 380 µM (inconclusive) | CC50 [11]: > 40 µM (active)

O=C(Oc1ccc2c(c1)OCO2)c1cc2c(s1)CCC2
AC50 [12]: 2.01 µM (active) | AC50 [13]: 10.8 µM (active) | AC50 [14]: 10.4 µM (active) | IC50 [1]: < 1.56 µM (active) | AC50 [15]: 7.2 µM (active) | AC50 [16]: 3.31 µM (active) | EC50 [17]: > 260 µM (inactive) | IC50 [2]: < 0.023 µM (not active)

COc1ccc(/C=N/N=C2/SCC(=O)N2Cc2ccccc2)cc1
EC50 [18]: 0.361 µM (active) | AC50 [19]: 164 µM (active) | EC50 [20]: 0.581 µM (active) | EC50 [21]: > 120 µM (not active) | EC50 [22]: < 0.1 µM (active) | AC50 [23]: > 35 µM (active) | EC50 [24]: 0.335 µM (active) | AC50 [25]: > 35 µM (active)

Nc1nc(N)c2nc(-c3ccccc3)c(N)nc2n1
IC50 [7]: 0.807 µM (active) | EC50 [26]: > 195 µM (not active) | AC50 [27]: inactive
